From article PMC4913266, “Crystal structure of MytiLec, a galactose-binding lectin from the mussel Mytilus galloprovincialis with cytotoxicity against certain cancer cell types” (Scientific Reports, 2016)

What was measured:
[1] = biological target: T1, MytiLec (Mytilus galloprovincialis, UniProt B3EWR1, T39A); experiment: ITC, single-site model; crystal structure […] Å; format: binding; settings: 10 mM HEPES pH 7.4, 100 mM NaCl, 298 K; averaged over three sites per monomer (one type of independent site); crystal shows alpha anomer at all six sites of the dimer
T1 construct: full-length from codon-optimised synthetic gene, initial Thr changed to Ala; N-terminal His6 tag cut by thrombin, product begins GSHMATF; E. coli BL21(DE3) RILP; homodimer 34 kDa
T1 sequence (B3EWR1 39-187 T39A): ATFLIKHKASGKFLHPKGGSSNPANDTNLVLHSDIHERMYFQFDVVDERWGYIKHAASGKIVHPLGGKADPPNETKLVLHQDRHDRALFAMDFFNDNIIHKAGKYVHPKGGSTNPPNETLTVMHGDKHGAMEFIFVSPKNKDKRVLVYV

[2] = biological target: T1, MytiLec; experiment: ITC, single-site model; format: binding; settings: 10 mM HEPES pH 7.4, 100 mM NaCl, 298 K; averaged over three sites per monomer (one type of independent site)
[3] = biological target: MytiLec(F93DF94S) (Mytilus galloprovincialis)
[4] = biological target: Recombinant MytiLec (Mytilus galloprovincialis); experiment: AUC; sedimentation velocity, 50 mM potassium phosphate pH 7.4, 0.1 M NaCl, 293 K, 50,000 rpm, absorbance at 280 nm, c(s) converted to c(M); wild-type protein

Molecule: CC(=O)N[C@H]1C(O)O[C@H](CO)[C@H](O)[C@@H]1O (stereo partly shown) [GalNAc]
- Kd [1]: 130 µM

Molecule: OC[C@H]1OC(O)[C@H](O)[C@@H](O)[C@H]1O (stereo partly shown) [galactose]
- Kd [2]: 200 µM

Molecule: MytiLec(F93DF94S) (natural protein)
- haemagglutination activity on rabbit erythrocytes, monomer mutant against the dimer (times less than the dimer) [3]: 10

Molecule: Recombinant MytiLec (natural protein)
- stoichiometry N [4]: 2
